Measured values from PMC6268492, “Synthesis and Antiangiogenic Activity of Novel Gambogic Acid Derivatives” (Molecules, 2012).

Tests used:
[1] = tested on: HUVECs; assay: Matrigel tube formation assay; assay type: cell-based, Human
Description: In the later stages of angiogenesis, tube formation of ECs is also an important process. Thus, a Matrigel tube formation assay was applied to assess the ability of HUVECs to form ECs vascular structures which is believed to be significant in new vessel formation.
Figure 4 Effects on the HUVECs tube formation. (I) HUVECs (1 × 10^4 cells) suspended in DMEM containing each compound (0.5 or 1 or 2 μM) were added to the Matrigel. Control was treated with DMEM alone. After incubation for 6 h at 37 °C, capillary networks were photographed and quantified (Olympus CKX41, magnification: 100×); (II) Rates of the HUVECs tube formation. The number of intact tubes was counted in five randomly chosen regions and expressed as the percentage of the control. The results were expressed as mean ±SD. ** p < 0.01; *** p < 0.005 compared with control.
Matrigel was dissolved at 4 °C overnight. Each well of prechilled 96-well plates was coated with 50 μL of Matrigel, incubated and solidified at 37 °C for 45 min. After removing the unsolidified fluid, HUVECs at the density of 1 × 10^4 were cultured in DMEM containing the indicated concentrations of compounds for 6 h. Controls were treated with the DMEM alone. Images were digitally captured and quantitatively analyzed (Olympus). The numbers and line lengths of the circular tubules formed by the cells were calculated manually. The values were observed from five randomly selected fields.

[2] = tested on: zebrafish embryos; assay: Zebrafish toxicity: mortality rate; assay type: in vivo, zebrafish (Danio rerio)
Description: (§1) To investigate the toxicity of these four compounds, the heart rates and the mortality rates of zebrafish embryos were recorded (Table 2 and Table 3). The heart rate of zebrafish in the control group was 117 beats/min.
(§2) Using transgenic fli-1: enhanced GFP zebrafish embryos, we investigated the effects of all compounds on angiogenesis. Zebrafish embryos were generated by natural pairwise mating and raised at 28.5 °C in embryo water (0.2 g/L of Instant Ocean Salt in distilled water). At about 6 h post fertilization (hpf), the embryos were sorted in the 6-well plate (six embryos/well), removing dead and unhealthy embryos. Then the embryos were treated with the indicated concentrations of compounds which were added into embryo water. After incubation for 24 or 48 h, the embryos were anesthetized using 0.05% 2-phenoxyethanol in embryo water, quantified and photographed.

[3] = tested on: LO2; assay: MTT assay, cytotoxicity; assay type: cell-based; details: Homo sapiens, L02, 24 h, read-out: IC50, inhibition of cell proliferation
Method in brief: (§3)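 Treatment lasted 24 h at 5 × 10^3 cells per well. MTT incubation ran 3 h, formazan was dissolved in DMSO and A570 was recorded. Percent growth against untreated wells gave the IC50 (50% inhibition).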

[4] = tested on: HUVEC; assay: MTT assay, cell proliferation; assay type: cell-based, Human; details: Homo sapiens, 24 h, read-out: IC50, inhibition of cell proliferation
Method in brief: (§4)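 Absorbance at 570 nm of DMSO-dissolved formazan was expressed as percentage growth relative to untreated cells, and IC50 was taken as the concentration giving 50% inhibition. Seeding was 5 × 10^3 cells per well, with 24 h compound treatment followed by 3 h MTT.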

[5] = tested on: HepG2; assay: MTT assay, cell proliferation; assay type: cell-based; details: Homo sapiens, 24 h, read-out: IC50, inhibition of cell proliferation
Method in brief: as §3

[6] = tested on: HCT116; assay: MTT assay, cell proliferation; assay type: cell-based; details: Homo sapiens, HCT-116, 24 h, read-out: IC50, inhibition of cell proliferation
Method in brief: as §4

[7] = tested on: K562; assay: MTT assay, cell proliferation; assay type: cell-based; details: Homo sapiens, 24 h, read-out: IC50, inhibition of cell proliferation
Method in brief: as §3

[8] = tested on: HeLa; assay: MTT assay, cell proliferation; assay type: cell-based; details: Homo sapiens, 24 h, read-out: IC50, inhibition of cell proliferation
Method in brief: as §3

[9] = tested on: A549; assay: MTT assay, cell proliferation; assay type: cell-based; details: Homo sapiens, 24 h, read-out: IC50, inhibition of cell proliferation
Method in brief: as §4

[10] = tested on: zebrafish embryos; assay: Zebrafish toxicity: heart rates; assay type: in vivo; details: for Heart rates of zebrafish: control 117 beats/min
Description: as §1, §2

[11] = tested on: HUVECs; assay: Wound-healing migration assay; assay type: cell-based, Human; details: 1 μM, 24 h, control = 100%
Description: The migration of ECs is an important step of angiogenesis. The continuity of vascular ECs is the most important factor in preserving vessel wall function. Migration of ECs is essential to the recovery of this continuity after vascular ECs injury. […] As illustrated in Figure 3(I), the HUVECs migrated into the wound area actively (between the two white dash lines) under the compound-free condition (control).
Figure 3 Effects on the HUVECs migration. (I) HUVECs suspended in serum-free Dulbecco’s Modified Eagle Medium (DMEM) containing compounds (0.25 or 0.5 or 1 μM) for 24 h were photographed under a phase contrast microscopy (Olympus CKX41, magnification: 50×). Control was treated with serum-free DMEM which was consided as resulting in 100%; (II) Migration rates of compounds on the HUVECs. Data represented the mean standard deviation (SD) from three independent experiments. *** p < 0.005compared with control.
HUVECs were seeded in 6-well plates precoated with 0.1% gelatin, and grown overnight to confluence. The monolayer cells were wounded by scratching with 10 μL pipet tips and washed twice with serum-free DMEM (Dulbecco’s modified eagle medium) to remove the nonadherent cells and then replaced by serum-free DMEM with the indicated concentrations of compounds for 24 h. Images were taken at 0 h and 24 h independently after incubation at 37 °C, 5% CO2 environment. The migrated HUVECs were manually counted. The values were observed from four randomly selected fields.

CC(=O)Nc1ccc(NC(=O)/C(C)=C\CC23OC(C)(C)C4CC(C=C5C(=O)c6c(O)c7c(c(CC8OC8(C)C)c6OC542)OC(C)(CCC2OC2(C)C)C=C7)C3=O)cc1 (stereo not shown) [Compound 36, (32,33),(37,38)-Diepoxy-N-(4-acetamidophenyl) gambogamide]
improvement in the inhibition of tube formation compared with GA ([1]; 0.5 μM): 2 fold | inhibition at 0.5 µM ([1]; Homo sapiens, HUVEC, 0.5 μM, 6 h, vs control, read-out: inhibitory rates of tube formation): 56.5% | inhibition at 2 µM ([1]; Homo sapiens, HUVEC, 2 μM, read-out: tube formation inhibitory rate): 100% | inhibition of tubular structures ([1]; concentrations exceeding 1 μM): completely inhibit tubular structures | Mortality rates ([2]; 1 μM, zebrafish): 0% | Mortality rates ([2]; 2.5 µM and 10 µM, zebrafish embryos): less than 20% | Mortality rates ([2]; 2.5 μM, zebrafish): 3.3 ± 5.77 % | Mortality rates ([2]; 10 μM, zebrafish): 16.7 ± 5.77 % | IC50 [3]: 1620 ± 80 nM | IC50 [4]: 2450 ± 90 nM | IC50 [5]: 1850 ± 80 nM | IC50 [6]: 560 ± 10 nM | IC50 [7]: 280 ± 30 nM | IC50 [8]: 4960 ± 880 nM | IC50 [9]: 1290 ± 140 nM | heart rates relative to control group ([10]; 2.5 µM and 10 µM, zebrafish): about half of the control group | Heart rates of zebrafish ([10]; 2.5 μM): 60 ± 5.2 beats/min | Heart rates of zebrafish ([10]; 10 μM): 60 ± 2.86 beats/min | migratory rates [11]: 1.7%
